Columns and labels:
TNBS-induced colitis [1] = test: Colon length shortening in TNBS-colitis model; format: in vivo; settings: TNBS-colitis mice, vehicle-treated greater than 17%
From the text: (§1) The effectiveness of compounds and methods of the present invention on intestinal barrier protection and treatment of inflammatory bowel disease (IBD) in TNBS (2,4,6-trinitrobenzene sulfonic acid)-induced colitis, an established animal model of inflammatory bowel disease, was examined. TNBS-induced colitis was induced in mice using a modification of techniques previously described. (See Morris et al (1989) Gastroenterology 96:795-803; Boirivant et al (1998) J Exp Med 188:1929-1939; Karhausen et al (2004) J Clin Invest 114:1098-1106.) Mice were shaved on the abdomen (causing total depletion of hair and microlesions) and were then sensitized to subsequent treatment by epicutaneous application of 1% TNBS (Sigma-Aldrich) in 100% ethanol on day minus 7. Seven days later, on day 0, animals were sedated with a 2.5% Tribromoethanol solution in phosphate-buffered saline (14 μl/g body weight), followed by intrarectal administration of a 2.5% TNBS solution in 50% ethanol (5 μl/g body weight). Administration of the 2.5% TNBS solution was carried out using an epidural catheter ([…] Plus Epidural Catheter, Arrow International), which was inserted approximately 6 cm ab ano followed by release of the TNBS solution. […] Colon length was determined by measurement of the distance from the most distal aspect of the cecum to the most terminal aspect of the rectum on day 3 post-induction of TNBS-colitis.

TNBS-induced colitis [2] = test: Intestinal permeability, FITC-labeled-dextran method, TNBS-colitis model; format: in vivo; settings: TNBS-colitis mice; 60 mg/kg i.p.; FITC-dextran gavage after 20 hours, serum four hours later; compared to vehicle control
From the text: as §1, with “Four hours later, changes in intestinal permeability were” for “Colon length was”, “serum FITC-dextran levels.” for “the distance from the most distal aspect of the cecum to the most terminal aspect of the rectum on day 3 post-induction of TNBS-colitis.”

SMILES: O=C(O)CNC(=O)c1ncc2cc(Sc3ccccc3)ccc2c1O [Compound A, [(4-Hydroxy-7-phenylsulfanyl-isoquinoline-3-carbonyl)-amino]-acetic acid]
- average decrease in colon length at day 3 (TNBS-induced colitis [1]; 20 mg/kg i.p. on day minus 1, day 0, day 1): approximately 12%
- average decrease in colon length at day 3 (TNBS-induced colitis [1]; 40 mg/kg i.p. on day minus 1, day 0, day 1): ~8%
- serum FITC-dextran levels (intestinal permeability) (TNBS-induced colitis [2]): lower levels of serum FITC-dextran
